In patent US11414416B1, “Compounds and uses thereof” (Foghorn Therapeutics Inc., priority 2019, dated 2022):

Molecular target: Nanoluciferase-BRD9 fusion protein (Homo sapiens (Human), UniProt Q9H8M2)
Experiment: SYO1 BRD9 NanoLuc degradation assay
Type: cell-based
Details: Table 5A; SYO-1 cells expressing 3×FLAG-NLuc-BRD9, 6 hours; read-out: SYO1 BRD9-NanoLuc degradation IC50
Method in brief: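 Degradation was read as loss of nanoluciferase signal (Nano-Glo) after 6 h compound exposure in a stable SYO-1 line carrying 3×FLAG-NLuc-BRD9 (8000 cells/well). Normalised between DMSO (high) and a 1 μM known BRD9 degrader (low).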

Chain of Nanoluciferase-BRD9 fusion protein (Q9H8M2 whole entry, the tested form may be a part): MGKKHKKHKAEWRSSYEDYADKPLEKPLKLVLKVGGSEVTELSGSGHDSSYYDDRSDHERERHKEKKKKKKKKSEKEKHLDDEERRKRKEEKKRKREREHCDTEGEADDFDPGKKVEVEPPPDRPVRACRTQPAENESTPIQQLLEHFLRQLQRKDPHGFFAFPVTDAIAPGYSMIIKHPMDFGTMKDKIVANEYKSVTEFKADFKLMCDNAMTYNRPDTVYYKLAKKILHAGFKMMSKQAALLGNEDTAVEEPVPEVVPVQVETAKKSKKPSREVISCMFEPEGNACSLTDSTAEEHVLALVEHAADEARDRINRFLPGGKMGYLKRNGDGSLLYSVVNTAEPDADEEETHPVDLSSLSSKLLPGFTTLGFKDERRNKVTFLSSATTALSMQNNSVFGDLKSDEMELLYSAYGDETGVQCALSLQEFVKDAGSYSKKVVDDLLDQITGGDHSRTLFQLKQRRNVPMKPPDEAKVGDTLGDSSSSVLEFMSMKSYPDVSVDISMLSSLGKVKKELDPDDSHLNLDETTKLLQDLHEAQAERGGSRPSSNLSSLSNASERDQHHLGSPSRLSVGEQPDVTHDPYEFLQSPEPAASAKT

DC50 [µM] | Compound
< 0.01 | COc1cc(-c2cn(C)c(=O)c3cnccc23)cc(OC)c1CN1CCC2(CC1)CN(CCCCCOc1ccc3c(c1)C(=O)N(C1CCC(=O)NC1=O)C3=O)CCO2 (stereo not shown) [Compound D47, 5-[[5-(9-[[2,6-dimethoxy-4-(2-methyl-1-oxo-2,7-naphthyridin-4-yl)phenyl]methyl]-1-oxa-4,9-diazaspiro[5.5]undecan-4-yl)pentyl]oxy]-2-(2,6-dioxopiperidin-3-yl)isoindole-1,3-dione formic acid]
0.1 to 1 | COc1cc(-c2cn(C)c(=O)c3cnccc23)cc(OC)c1CN1CC(CC(=O)N2CC3(CCN(c4ccc5c(c4)C(=O)N(C4CCC(=O)NC4=O)C5=O)C3)C2)C1 (stereo not shown) [Compound D77]
0.1 to 1 | COc1cc(-c2cn(C)c(=O)c3cnccc23)cc(OC)c1CN1CC(CC(=O)N2CC3(CCC(Oc4ccc5c(c4)C(=O)N(C4CCC(=O)NC4=O)C5=O)C3)C2)C1 (stereo not shown) [Compound D79]

Second part, the compound before the results:

Compound | DC50 [µM]
COc1cc(-c2cn(C)c(=O)c3cnccc23)cc(OC)c1CN1CCC2(CC1)CN(CCCCOc1ccc3c(c1)C(=O)N(C1CCC(=O)NC1=O)C3=O)CCO2 (stereo not shown) [Compound D50, 5-(4-(9-(2,6-dimethoxy-4-(2-methyl-1-oxo-1,2-dihydro-2,7-naphthyridin-4-yl)benzyl)-1-oxa-4,9-diazaspiro[5.5]undecan-4-yl)butoxy)-2-(2,6-dioxopiperidin-3-yl)isoindoline-1,3-dione] | < 0.01
COc1cc(-c2cn(C)c(=O)c3cnccc23)cc(OC)c1CN1CCC(CCN2CCN(c3ccc4c(c3)C(=O)N(C3CCC(=O)NC3=O)C4=O)CC2)CC1 (stereo not shown) [Compound D42, 5-(4-(2-(1-(2,6-dimethoxy-4-(2-methyl-1-oxo-1,2-dihydro-2,7-naphthyridin-4-yl)benzyl)piperidin-4-yl)ethyl)piperazin-1-yl)-2-(2,6-dioxopiperidin-3-yl)isoindoline-1,3-dione formic acid] | < 0.01

Same assay, conditions: Table 5B; SYO-1 cells expressing 3×FLAG-NLuc-BRD9, 6 hours; read-out: SYO1 BRD9-NanoLuc degradation IC50

DC50 [µM] | Compound
0.01 to 0.1 | COc1cc(-c2cn(C)c(=O)c3cnccc23)cc(OC)c1CN(C)CCCCN1CC(Oc2ccc3c(c2)C(=O)N(C2CCC(=O)NC2=O)C3=O)C1 (stereo not shown) [Compound D249]
< 0.01 | COc1cc(-c2cn(C)c(=O)c3cnccc23)cc(OC)c1CN(C)C(=O)CCCCN1CC2(CC(Oc3ccc4c(c3)C(=O)N(C3CCC(=O)NC3=O)C4=O)C2)C1 (stereo not shown) [Compound D230]
< 0.01 | COc1cc(-c2cn(C)c(=O)c3cnccc23)cc(OC)c1CN1CCN(CC#Cc2ccc3c(c2)C(=O)N(C2CCC(=O)NC2=O)C3=O)CC1 (stereo not shown) [Compound D237]
< 0.01 | COc1cc(-c2cn(C)c(=O)c3cnccc23)cc(OC)c1CN1CCN(C(=O)CC#Cc2ccc3c(c2)C(=O)N(C2CCC(=O)NC2=O)C3=O)CC1 (stereo not shown) [Compound D316]
0.1 to 1 | COc1cc(-c2cn(C)c(=O)c3cnccc23)cc(OC)c1CN1CC(CC(=O)N2CCCC3(CC(Oc4ccc5c(c4)C(=O)N([C@H]4CCC(=O)NC4=O)C5=O)C3)C2)C1 (stereo partly shown) [Compound D265]
0.1 to 1 | COc1cc(-c2cn(C)c(=O)c3cnccc23)cc(OC)c1CN1CC(CC(=O)N2CC(Oc3ccc4c(c3)C(=O)N(C3CCC(=O)NC3=O)C4=O)C2)C1 (stereo not shown) [Compound D233]
< 0.01 | COc1cc(-c2cn(C)c(=O)c3cnccc23)cc(OC)c1CN1CCN(C(=O)CCC#Cc2ccc3c(c2)C(=O)N(C2CCC(=O)NC2=O)C3=O)CC1 (stereo not shown) [Compound D199]
< 0.01 | COc1cc(-c2cn(C)c(=O)c3cnccc23)cc(OC)c1CN(C)CCCCN1CCC2(CCN(c3ccc4c(c3)C(=O)N(C3CCC(=O)NC3=O)C4=O)C2)C1 (stereo not shown) [Compound D225]
< 0.01 | COc1cc(-c2cn(C)c(=O)c3cnccc23)cc(OC)c1CN1CCC(c2nc(COc3ccc4c(c3)C(=O)N(C3CCC(=O)NC3=O)C4=O)co2)CC1 (stereo not shown) [Compound D325]
0.01 to 0.1 | COc1cc(-c2cn(C)c(=O)c3cnccc23)cc(OC)c1CN1CC(CC(=O)N2CC3(C2)CN(c2ccc4c(c2)C(=O)N(C2CCC(=O)NC2=O)C4=O)C3)C1 (stereo not shown) [Compound D195]

Second part, the compound before the results:

Compound | DC50 [µM]
COc1cc(-c2cn(C)c(=O)c3cnccc23)cc(OC)c1CN(C)CCOCCOCCOCC(=O)N[C@@H](C(=O)N1C[C@@H](O)C[C@@H]1C(=O)NCc1ccc(-c2scnc2C)cc1)C(C)(C)C [DD1] | > 1
COc1cc(-c2cc(C)c(=O)n(C)c2)cc(OC)c1CN1CCC(CCN2CCN(c3ccc4c(c3)C(=O)N(C3CCC(=O)NC3=O)C4=O)CC2)CC1 (stereo not shown) [Compound D329] | < 0.01
COc1cc(-c2cn(C)c(=O)c3cnccc23)cc(OC)c1CN(C)C(=O)CCCCN1CCC2(CCN(c3ccc4c(c3)C(=O)N(C3CCC(=O)NC3=O)C4=O)C2)C1 (stereo not shown) [Compound D188] | < 0.01
COc1cc(-c2cc(C)c(=O)n(C)c2C)c(OC)cc1CN1CC(CN2CCC3(CC2)CN(c2ccc4c(c2)C(=O)N(C2CCC(=O)NC2=O)C4=O)C3)C1 (stereo not shown) [Compound D359] | < 0.01
COc1cc(-c2cn(C)c(=O)c3[nH]ccc23)cc(OC)c1CN1CCC2(CC1)CN(c1ccc3c(c1)C(=O)N(C1CCC(=O)NC1=O)C3=O)C2 (stereo not shown) [Compound D340] | < 0.01
COc1cc(-c2cc(C)c(=O)n(C)c2)cc(OC)c1CN1CCC2C(C1)CN2c1ccc2c(c1)C(=O)N(C1CCC(=O)NC1=O)C2=O (stereo not shown) [Compound D338] | < 0.01
COc1cc(-c2cc(C(F)(F)F)c(=O)n(C)c2)cc(OC)c1CN1CCC(CCN2CCN(c3ccc4c(c3)C(=O)N(C3CCC(=O)NC3=O)C4=O)CC2)CC1 (stereo not shown) [Compound D328] | < 0.01
COc1cc(-c2cn(C)c(=O)c3ccccc23)cc(OC)c1CN1CC(CN2CCC3(CC2)CN(c2ccc4c(c2)C(=O)N(C2CCC(=O)NC2=O)C4)C3)C1 (stereo not shown) [Compound D356] | < 0.01

Same assay, conditions: Table 5C; SYO-1 cells expressing 3×FLAG-NLuc-BRD9, 6 hours; read-out: SYO1 BRD9-NanoLuc degradation IC50

Compound | DC50 [µM]
COc1cc(-c2cc(C(F)F)c(=O)n(C)c2)cc(OC)c1CN1CCC(CN2CCC3(CC2)CN(c2ccc4c(c2)C(=O)N(C2CCC(=O)NC2=O)C4)C3)CC1 (stereo not shown) [Compound D407] | < 0.01
COc1cc(-c2cn(C)c(=O)c3cncn23)cc(OC)c1CN1CCC2(CC1)CN(c1ccc3c(c1)C(=O)N(C1CCC(=O)NC1=O)C3)C2 (stereo not shown) [Compound D428] | < 0.01
COc1cc(-c2cn(C)c(=O)c3cnccc23)cc(OC)c1CN1CCC2(CC1)CN(c1cc(C(=O)NC3CCC(=O)NC3=O)ncn1)C2 (stereo not shown) [Compound D395] | < 0.01
COc1cc(-c2cc(C)c(=O)n(C)c2)cc(OC)c1CN1CC(C#Cc2ccc3c(c2)CN(C2CCC(=O)NC2=O)C3=O)C1 (stereo not shown) [Compound D440] | < 0.01
COc1cc(-c2cn(C)c(=O)c3cnccc23)cc(OC)c1CN1CCC2(CC1)CN(c1ccnc(C(=O)NC3CCC(=O)NC3=O)n1)C2 (stereo not shown) [Compound D391] | 0.1 to 1
COc1cc(-c2cn(C)c(=O)c3nccn23)cc(OC)c1CN1CCC2(CC1)CN(c1ccc3c(c1)C(=O)N(C1CCC(=O)NC1=O)C3)C2 (stereo not shown) [Compound D447] | 0.1 to 1
COc1cc(-c2cn(C)c(=O)c3cn(C)nc23)cc(OC)c1CN1CC(CN2CCC3(CC2)CN(c2ccc4c(c2)C(=O)N(C2CCC(=O)NC2=O)C4)C3)C1 (stereo not shown) [Compound D402] | < 0.01
COc1cc(-c2cc(C(F)F)c(=O)n(C)c2)cc(OC)c1CN1CCN(CCC2CCN(c3ccc4c(c3)C(=O)N(C3CCC(=O)NC3=O)C4=O)CC2)CC1 (stereo not shown) [Compound D398] | < 0.01
COc1cc(-c2cn(C)c(=O)c3[nH]c(C)cc23)cc(OC)c1CN1CCC2(CC1)CN(c1ccc3c(c1)C(=O)N(C1CCC(=O)NC1=O)C3)C2 (stereo not shown) [Compound D422] | < 0.01
COc1cc(-c2cc(C)c(=O)n(C)c2)cc(OC)c1CN1CCC(C#Cc2ccc3c(c2)C(=O)N(C2CCC(=O)NC2=O)C3)CC1 (stereo not shown) [Compound D443] | < 0.01
Cn1ccc2oc(C(=O)NC3CCN(c4ccc5c(c4)C(=O)N(C4CCC(=O)NC4=O)C5)CC3)cc2c1=O (stereo not shown) [DD16] | 0.01 to 0.1
